Source: ChEMBL document CHEMBL3352618, “Discovery of novel pyrimidine and malonamide derivatives as TGR5 agonists” (Bioorg Med Chem Lett, 2014)

Assays:
Type in all cases: ADME, organism-based
[1] = AUC (0 to 7 hrs) in male ICR mouse at 5 mg/kg, iv; design: time < 7 hr, dose 5 mg/kg, route intravenous; details: plasma
[2] = Half life in male ICR mouse at 5 mg/kg, iv; design: dose 5 mg/kg, route intravenous; details: in vivo
Mus musculus [3] = test: Volume of distribution at steady state in male ICR mouse at 5 mg/kg, iv; design: dose 5 mg/kg, route intravenous; details: in vivo
Mus musculus [4] = test: Clearance in male ICR mouse at 5 mg/kg, iv; design: dose 5 mg/kg, route intravenous; details: in vivo
Mus musculus [5] = test: Mean residence time (last) in male ICR mouse at 5 mg/kg, iv; design: dose 5 mg/kg, route intravenous; details: in vivo
[6] = AUC (0 to 7 hrs) in male ICR mouse at 10 mg/kg, po; design: time < 7 hr, dose 10 mg/kg, route oral; details: plasma
[7] = Cmax in male ICR mouse at 10 mg/kg, po; design: dose 10 mg/kg, route oral; details: in vivo
[8] = Tmax in male ICR mouse at 10 mg/kg, po; design: dose 10 mg/kg, route oral; details: in vivo
[9] = Half life in male ICR mouse at 10 mg/kg, po; design: dose 10 mg/kg, route oral; details: in vivo
Mus musculus [10] = test: Volume of distribution at steady state in male ICR mouse at 10 mg/kg, po; design: dose 10 mg/kg, route oral; details: in vivo
[11] = Clearance in male ICR mouse at 10 mg/kg, po; design: dose 10 mg/kg, route oral; details: in vivo
[12] = Mean residence time (last) in male ICR mouse at 10 mg/kg, po; design: dose 10 mg/kg, route oral; details: in vivo
[13] = Oral bioavailability in male ICR mouse at 10 mg/kg; details: in vivo

AUC(0-t) at 7 h [1]: 1430 ng·h/mL
half-life [2]: 1.45 h
Vdss (Mus musculus [3]): 7.31 L/kg
CL (Mus musculus [4]): 58.2 mL/min/kg
MRT (Mus musculus [5]): 0.2 h
AUC(0-t) at 7 h [6]: 397 ng·h/mL
Cmax [7]: 236 ng/mL
Tmax [8]: 1 h
half-life [9]: 2.83 h
Vdss (Mus musculus [10]): 90.5 L/kg
CL/F [11]: 369 mL/min/kg
MRT last [12]: 1.97 h
bioavailability [13]: 13.9%
SMILES: CN1CCN(C(=O)c2cnc(O)nc2Oc2cc(Cl)ccc2Cl)c2ccccc21
